Laboratory results reported in patent publication US11065266B2, “Method of treating melanoma using an inhibitor of an atypical protein kinase C” (UNIVERSITY OF SOUTH FLORIDA, priority 2016, dated 2021).

Legend:
Assay type in all cases: cell-based, human
SK-MEL-2 cells [1] = test: Wound healing assay; conditions: for scratch coverage in wound healing assay: two days; for wound closure: 2.5 μM, day 3 or 4, p≤0.01
Description: (§1) For the wound-healing assay, melanoma cells were seeded into 35 mm dishes in 6-well-plates. After the cells had reached 100% confluency, the wound-healing assay was performed with a sterile pipette tip (1-10 μL pipette tip) by making a scratch through the confluent monolayer. Subsequently, the cells were washed with DPBS and fresh medium (EMEM) was added to each well and the desired amount of inhibitor was added in order to achieve the final concentrations of 50 nM, 100 nM, 200 nM, 500 nM and 1 μM against the control. Cells were cultured for 48 h. In 24 hours intervals, pictures of wound closure were taken and the percentage of wound closure was calculated in three randomly chosen fields.
The scratch was even clearer after two days in 1 μM sample compared to 200 nM sample. Also the number of dead cells floating was highest in 1 μM, followed by 200 nM; whereas, floating cells were rarely observed in the control samples.
A wound healing assay was performed to investigate the effect of ACPD and DNDA on malignant melanoma cell migration in vitro. Wound healing assay is commonly used to investigate in vitro migration of cancer cells. For the wound-healing assay, melanoma cells were seeded into 35 mm dishes in 6-well-plates. After the cells had reached 100% confluency, the wound-healing assay was performed with a sterile pipette tip (1-10 μL pipette tip) by making a scratch through the confluent monolayer. Subsequently, the cells were washed with DPBS and fresh medium (EMEM) was added to each well and the desired amount of inhibitor was added. Each well was subsequently incubated with sterile water or desired amount of ICA-1, ACPD, DNDA, or c-Stat to achieve the final concentration of the half maximal inhibitory concentration (IC50) for each inhibitor. Plates were incubated at 37 ° C. and 5% CO2 and photographs of wound closure were taken utilizing a Motic AE31E microscope (40× magnification). The percentage of wound closure was calculated after 3 or 4 days.
In one set of experiments, cells were cultured for 48 h. In 24 hours intervals, pictures of wound closure were taken and the percentage of wound closure was calculated in three randomly chosen fields. […] In each figure, cells treated with ACPD 2.5 μM and DNDA 2.5 μM were compared with their respective controls. The areas of the scratch (wound) were calculated and compared to determine the statistical significance (FIG. 8C).

MeWo cells [2] = test: Wound healing assay; conditions: 2.5 μM, day 3 or 4, p≤0.01
Description: as §1
A wound healing assay was performed to investigate the effect of ACPD and DNDA on malignant melanoma cell migration in vitro. Wound healing assay is commonly used to investigate in vitro migration of cancer cells. For the wound-healing assay, melanoma cells were seeded into 35 mm dishes in 6-well-plates. […] The percentage of wound closure was calculated after 3 or 4 days.
In one set of experiments, cells were cultured for 48 h. In 24 hours intervals, pictures of wound closure were taken and the percentage of wound closure was calculated in three randomly chosen fields. […] The areas of the scratch (wound) were calculated and compared to determine the statistical significance (FIG. 8C).

MeWo cells [3] = test: BME invasion assay (Calcein-AM fluorescence); conditions: 2.5 μM, vs control
Description: (§2) This invasion assay was performed to investigate the effect of ACPD and DNDA on malignant melanoma cell invasion in vitro. Even though it is similar to the Boyden chamber assay, it avoids scraping off the Matrigel and staining to assess migrated number of cells through filter. […] Migrated cells were stained with a fluorescent marker, Calcein-AM. Live cells cleave the ester (AM) of the molecule in order to produce fluorescence. Thus, the amount of fluorescence accumulated in the bottom chamber is proportional to the number of invaded cells. The relative fluorescent units (excitation at 485 and emission at 528 nm) after 2 h exposure were reported for inhibitor treatments for both SK-MEL-2 and MeWo cell lines compared to controls (FIG. 8D).

SK-MEL-2 cells [4] = test: BME invasion assay (Calcein-AM fluorescence); conditions: 2.5 μM, vs control
Description: as §2

PCS-200-013 normal cells = test: WST-1 assay for cell viability and cytotoxicity; conditions: treated at IC50, 3 days
Description: (§3) Approximately 4×10^3 cells (PCS-200-013, SK-MEL-2 and MeWo) were cultured in a 96 well plate. […] This IC50 was obtained based on the cell viability counts in the previous experiments. Additional doses of sterile water or inhibitor were supplied every 24 h during 3 day incubation period. At the end of 3 day treatment, media were removed and fresh media (100 μL) were added with 4-[3-(4-iodophenyl)-2-(4-nitropheny))-2H-5-tetrazolio]-1,3-benzene disulfonate (WST-1) reagent (10 μL) to each well. The absorbance was measured at 450 nm for every 0.5 hour up to 3 hours using the Synergy HT microplate reader from Biotek (Winooski, Vt.).
(§4) WST-1 assay was performed to determine the in-vitro cytotoxicity of ACPD and DNDA on normal and malignant cell lines. Measured absorbance at 450 nm is directly proportional to the number of cells present. Cells produce a water soluble formazan with WST-1 as a result of their mitochondrial dehydrogenase activity. WST-1 assay is preferred over 3-(4,S-Dimethyl-2-thiazolyl)-2, 5-diphenyl-2Htetrazolium bromide (MTT) test since MTT needs to add acidic isopropanol to dissolve formazan which gives an additional toxicity to cells.

SK-MEL-2 cells [5] = test: WST-1 assay for cell viability and cytotoxicity; conditions: treated at IC50, 3 days
Description: as §3, §4

MeWo cells [6] = test: Western blot of protein levels

CC(=O)C1=C(O)CCC1=O [ACPD, 2-acetyl-1,3-cyclopentanedione]
scratch coverage in wound healing assay (SK-MEL-2 cells [1]; 200 nM): not completely covered
scratch coverage in wound healing assay (SK-MEL-2 cells [1]; 1 μM): not completely covered
wound closure (SK-MEL-2 cells [1]): significantly reduce the wound closure
wound closure (MeWo cells [2]): significantly reduce the wound closure
reduction of invasion (MeWo cells [3]): 21%
reduction of invasion (SK-MEL-2 cells [4]): 24%
WST-1 absorbance at 450 nm, effect on normal cells (PCS-200-013 normal cells): did not show a significant effect
WST-1 absorbance at 450 nm, effect (SK-MEL-2 cells [5]): did not show a significant effect
decrease of Bcl-2 levels (MeWo cells [6]): 25%
decrease of CD44 (MeWo cells [6]): 34%
decrease of PARP levels (MeWo cells [6]): 24%
decrease of Vimentin levels (MeWo cells [6]): 38%
decrease of β-catenin (MeWo cells [6]): 16%
increase of Caspase-3 levels (MeWo cells [6]): 17%
increase of E-cadherin levels (MeWo cells [6]): 35%
increase of NF-KB p65 levels (MeWo cells [6]): 69%
increase of cleaved PARP levels (MeWo cells [6]): 18%

Nc1c(S(=O)(=O)O)cc2cc(S(=O)(=O)O)ccc2c1N [DNDA, 3,4-diamino-2,7-naphthalenedisulfonic acid]
wound closure (SK-MEL-2 cells [1]): significantly reduce the wound closure
wound closure (MeWo cells [2]): significantly reduce the wound closure
reduction of invasion (MeWo cells [3]): 32%
reduction of invasion (SK-MEL-2 cells [4]): 32%
WST-1 absorbance at 450 nm, effect on normal cells (PCS-200-013 normal cells): did not show a significant effect
WST-1 absorbance at 450 nm, effect (SK-MEL-2 cells [5]): significant decrease in absorption
decrease of Bcl-2 levels (MeWo cells [6]): 32%
decrease of CD44 (MeWo cells [6]): 43%
decrease of Vimentin levels (MeWo cells [6]): 45%
decrease of β-catenin (MeWo cells [6]): 21%
increase of Caspase-3 levels (MeWo cells [6]): 39%
increase of E-cadherin levels (MeWo cells [6]): 29%
increase of NF-KB p65 levels (MeWo cells [6]): 89%
increase of PARP levels (MeWo cells [6]): 9%
increase of cleaved PARP levels (MeWo cells [6]): 10%
